Measured values taken from ChEMBL document CHEMBL1201862, “PubChem BioAssay data set” (2004).
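In this assay, cells in 96-well plates receive the compound at five concentrations for 48 hours. Endpoints are linearly interpolated between the surrounding concentrations. Here, GI50 denotes the concentration required for 50% inhibition of growth.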 Active and inactive are the calls of the source. Rule as the data show it: active = GI50 up to about 1.1 µM and inactive = higher.

What was measured:
Experiment in all cases: growth of human tumour cells (NCI), 48 h
UACC-257 = tested on: UACC-257
LXFL 529 = tested on: LXFL 529
NCI-H226 = tested on: NCI-H226
HOP-62 = tested on: HOP-62
SW-620 = tested on: SW-620
SK-OV-3 = tested on: SK-OV-3
U-251 = tested on: U-251
SF-539 = tested on: SF-539
XF498 = tested on: XF498
MOLT-4 = tested on: MOLT-4
UACC-62 = tested on: UACC-62
SNB-78 = tested on: SNB-78
HOP-18 = tested on: HOP-18
DMS-114 = tested on: DMS-114
CCRF-CEM = tested on: CCRF-CEM
M19-MEL = tested on: M19-MEL
A549 = tested on: A549

Row | SMILES | GI50 (UACC-257) | GI50 (LXFL 529) | GI50 (NCI-H226) | GI50 (HOP-62) | GI50 (SW-620) | GI50 (SK-OV-3) | GI50 (U-251) | GI50 (SF-539) | GI50 (XF498) | GI50 (MOLT-4) | GI50 (UACC-62) | GI50 (SNB-78) | GI50 (HOP-18) | GI50 (DMS-114) | GI50 (CCRF-CEM) | GI50 (M19-MEL) | GI50 (A549)
1 | CC(=O)OC1COC(n2c(=S)n(-c3ccccc3)c(=O)c3cc(Br)ccc32)C(OC(C)=O)C1OC(C)=O (stereo unspecified) | 55.2 µM (inactive) | 27 µM (inactive) | 83.4 µM (inactive) | 19.5 µM (inactive) | > 100 µM (inactive) | 32.8 µM (inactive) | 14.6 µM (inactive) | 22.4 µM (inactive) | 19.3 µM (inactive) | > 100 µM (inactive) | 37.3 µM (inactive) | 29 µM (inactive) | > 100 µM (inactive) | 51.6 µM (inactive) | > 100 µM (inactive) | 53.6 µM (inactive) | 40.4 µM (inactive)
2 | CCOC(=O)N1CCc2cc(OC)c(OC)cc2/C1=C\c1ccc(OC)c(OC)c1 | 23.6 µM (inactive) | 29.5 µM (inactive) | 23.4 µM (inactive) | 41.6 µM (inactive) | 32.7 µM (inactive) | 54 µM (inactive) | 30.3 µM (inactive) | 23.2 µM (inactive) | > 10 µM (inactive) | 27.7 µM (inactive) | 22.9 µM (inactive) | 35.7 µM (inactive) | 29.5 µM (inactive) | 35.3 µM (inactive) | 20.7 µM (inactive) | 26.1 µM (inactive) | 26.8 µM (inactive)
3 | Cc1c[n+]2c3ccccc3c3ccccc3c2s1.[O-][Cl+3]([O-])([O-])[O-] | 4.26 µM (inactive) | 3.16 µM (inactive) | 0.536 µM (active) | 6.52 µM (inactive) | 5.4 µM (inactive) | 10.7 µM (inactive) | 0.368 µM (active) | 4.59 µM (inactive) | 3.19 µM (inactive) | 2.03 µM (inactive) | 14.1 µM (inactive) | 0.721 µM (active) | 40.2 µM (inactive) | 2.61 µM (inactive) | 4.1 µM (inactive) | 4.2 µM (inactive) | 4.01 µM (inactive)
